Like-named read-outs stand apart in the source and are kept apart here.
Key:
Assay in all cases: MTT cancer cell growth inhibition
Format in all cases: cell-based
[1] = system: H1975 (non-small cell lung adenocarcinoma); details: Homo sapiens, NCI-H1975, 72 h, MTT, 72 hours incubation, H1975 cells; read-out: GI50 H1975
Method in brief: (§1)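 MTT viability, 570 nm, GI50. Cells 1500/well; compound 72 h at final 10^−5–10^−10 M in triplicate.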

[2] = system: MOLT-4 (human acute lymphoblastic leukemia cells); details: Homo sapiens, MOLT-4, 72 h, MTT
Method in brief: as §1

[3] = system: MCF-7 (human breast cancer cells); details: Homo sapiens, MCF7, 72 h
Method in brief: as §1

[4] = system: KBM5-T315I (human chronic myelogenous leukemia); details: Homo sapiens, 72 h, MTT, 72 hours incubation, KBM5-T315I cells; read-out: GI50 KBM5-T315I
Method in brief: as §1

[5] = system: A549 (human lung cancer cells); details: Homo sapiens, A549, 72 h, MTT
Method in brief: as §1

[6] = system: Hela (human cervical cancer cells); details: Homo sapiens, HeLa, 72 h, MTT
Method in brief: as §1

[7] = system: KBM-5 (human chronic myelogenous leukemia); details: Homo sapiens, KBM5, 72 h, MTT, 72 hours incubation, KBM-5 cells; read-out: GI50 KBM-5
Method in brief: as §1

[8] = system: PANC-1 (Pac-1, human pancreatic cancer cells); details: Homo sapiens, PANC-1, 72 h, MTT
Method in brief: as §1

[9] = system: Huh-7 (human hepatoma cells); details: Homo sapiens, Huh-7, 72 h, MTT, 72 hours incubation, Huh-7 cells; read-out: GI50 Huh-7
Method in brief: as §1

[10] = system: BGC-823 (human gastric cancer cells); details: Homo sapiens, BGC-823, 72 h, MTT
Method in brief: as §1

[11] = system: DU145 (human prostate cancer cells); details: Homo sapiens, DU-145, 72 h, MTT
Method in brief: as §1

[12] = system: SGC-7901 (human gastric cancer cells); details: Homo sapiens, SGC-7901, 72 h, MTT, 72 hours incubation, SGC-7901 cells; read-out: GI50 SGC-7901
Method in brief: as §1

[13] = system: U937 (human leukemia cells); details: Homo sapiens, U-937, 72 h, MTT
Method in brief: as §1

[14] = system: lncap (prostate cancer cells); details: Homo sapiens, LNCaP, 72 h, MTT
Method in brief: as §1

[15] = system: MDA-MB-231 (breast cancer cells); details: Homo sapiens, MDA-MB-231, 72 h, read-out: GI50 MDA-MB-231, MTT, 72 hours incubation, MDA-MB-231 cells
Method in brief: as §1

[16] = 72 hours, present invention, read-out: GI50 Molt-4, a
[17] = 72 hours, present invention, read-out: GI50 MCF7, a
[18] = MCF-7 cells, 72 hours incubation, read-out: GI50 MCF
[19] = A549 cells, 72 hours incubation, read-out: GI50 A54
[20] = 72 hours, present invention, read-out: GI50 A549, a
[21] = Hela cells, 72 hours incubation, read-out: GI50 Hela
[22] = 72 hours, present invention, read-out: GI50 Hela, a
[23] = 72 hours, present invention, read-out: GI50 PANC-1, a
[24] = PANC-1 cells, 72 hours incubation, read-out: GI50 PAN
[25] = BGC-823 cells, 72 hours incubation, read-out: GI50 BG
[26] = 72 hours, present invention, read-out: GI50 BGC823, a
[27] = DU145 cells, 72 hours incubation, read-out: GI50 Du1
[28] = 72 hours, present invention, read-out: GI50 Du145, a
[29] = 72 hours, present invention, read-out: GI50 U937, a
[30] = U937 cells, 72 hours incubation, read-out: GI50 U93
[31] = 72 hours, present invention, read-out: GI50 lncap, a
[32] = lncap cells, 72 hours incubation, read-out: GI50 lnca
[33] = 72 hours incubation, read-out: GI50 Mol
[34] = 72 hours incubation, read-out: GI50 MCF
[35] = 72 hours incubation, read-out: GI50 A54
[36] = 72 hours incubation, read-out: GI50 Hela
[37] = 72 hours incubation, read-out: GI50 PAN
[38] = 72 hours incubation, read-out: GI50 BG
[39] = 72 hours incubation, read-out: GI50 Du1
[40] = 72 hours incubation, read-out: GI50 U93
[41] = 72 hours incubation, read-out: GI50 lnca

Row | GI50 [1] [nM] | GI50 [4] [nM] | GI50 [7] [nM] | GI50 [9] [nM] | GI50 [12] [nM] | GI50 [15] [nM] | GI50 [2, 33] [nM] | GI50 [3, 34] [nM] | GI50 [5, 35] [nM] | GI50 [6, 36] [nM] | GI50 [8, 37] [nM] | GI50 [10, 38] [nM] | GI50 [11, 39] [nM] | GI50 [13, 40] [nM] | GI50 [14, 41] [nM] | Structure (SMILES) | also measured
1 | 26 | 51 | 83 | 31 | 52 | 31 | 30 | 50 | 50 | 80 | 80 | 60 | 10 | 20 | 30 | C/C=C1\NC(=O)c2nc(ccc2F)CNC(=O)C[C@@H](/C=C/CCSC(=O)CCCCCC)OC(=O)[C@H](C(C)C)NC1=O [Compound 33] | –
2 | 34 | 59 | 94 | 37 | 43 | 37 | 30 | 50 | 40 | 90 | 60 | 50 | 30 | 30 | 30 | C/C=C1\NC(=O)c2nc(ccc2F)CNC(=O)C[C@@H](/C=C/CCSC(=O)CC)OC(=O)[C@H](C(C)C)NC1=O [Example 45] | –
3 | 26 | 51 | 31 | 47 | 37 | 39 | 20 | 30 | 40 | 40 | 80 | 20 | 30 | 50 | 20 | C/C=C1\NC(=O)c2nc(ccc2F)CCNC(=O)C[C@@H](/C=C/CCSC(C)=O)OC(=O)[C@H](C(C)C)NC1=O [Compound 103] | –
4 | 51 | 82 | 71 | 64 | 63 | 29 | – | – | – | – | – | – | – | – | – | C/C=C1\NC(=O)c2cccc(n2)CNC(=O)C[C@@H](/C=C/CCSC(=O)CCCCCCC)OC(=O)[C@H](CC(C)C)NC1=O [Compound 241] | GI50 [2, 16]: 3 nM; GI50 [3, 17]: 28 nM; GI50 [3, 18]: 20 nM; GI50 [5, 19]: 110 nM; GI50 [5, 20]: 110 nM; GI50 [6, 21]: 11 nM; GI50 [6, 22]: 11 nM; GI50 [8, 23]: 170 nM; GI50 [8, 24]: 170 nM; GI50 [10, 25]: 100 nM; GI50 [10, 26]: 100 nM; GI50 [11, 28]: 3 nM; GI50 [13, 29]: 7 nM; GI50 [14, 31]: 25 nM; GI50 [14, 32]: 20 nM
5 | 43 | 55 | 79 | 35 | 45 | 35 | 30 | 50 | 40 | 70 | 70 | 70 | 40 | 40 | 30 | C/C=C1\NC(=O)c2cc(F)cc(n2)CNC(=O)C[C@@H](/C=C/CCSC(=O)CCCC)OC(=O)[C@H](C(C)C)NC1=O [Compound 40] | –

Continued, compound first:

Row | Structure (SMILES) | GI50 [1] [nM] | GI50 [4] [nM] | GI50 [7] [nM] | GI50 [9] [nM] | GI50 [12] [nM] | GI50 [15] [nM] | GI50 [2, 33] [nM] | GI50 [3, 34] [nM] | GI50 [5, 35] [nM] | GI50 [6, 36] [nM] | GI50 [8, 37] [nM] | GI50 [10, 38] [nM] | GI50 [11, 39] [nM] | GI50 [13, 40] [nM] | GI50 [14, 41] [nM] | also measured
6 | C/C=C1\NC(=O)c2cccc(n2)CNC(=O)C[C@@H](/C=C/CCSC(=O)CCCCCCC)OC(=O)[C@H](CSCC)NC1=O [Compound 242] | 21 | 33 | 56 | 59 | 32 | 16 | – | – | – | – | – | – | – | – | – | GI50 ([2]; MOLT-4 cells, 72 hours incubation, read-out: GI50 Mol): 30 nM; GI50 [2, 16]: 32 nM; GI50 [3, 17]: 73 nM; GI50 [3, 18]: 70 nM; GI50 [5, 19]: 190 nM; GI50 [5, 20]: 190 nM; GI50 [6, 21]: 80 nM; GI50 [6, 22]: 88 nM; GI50 [8, 23]: 950 nM; GI50 [8, 24]: 950 nM; GI50 [10, 25]: 10 nM; GI50 [10, 26]: 14 nM; GI50 [11, 27]: 90 nM; GI50 [11, 28]: 91 nM; GI50 [13, 29]: 12 nM; GI50 [13, 30]: 10 nM; GI50 [14, 31]: 170 nM; GI50 [14, 32]: 170 nM
7 | C/C=C1\NC(=O)c2cc(F)cc(n2)CNC(=O)C[C@@H](/C=C/CCSC=O)OC(=O)[C@H](C(C)C)NC1=O [Compound 52] | 61 | 67 | 88 | 31 | 51 | 31 | 30 | 60 | 50 | 80 | 90 | 50 | 20 | 60 | 30 | –
8 | C/C=C1\NC(=O)c2cccc(n2)CNC(=O)C[C@@H](/C=C/CCS)OC(=O)[C@@H](C)NC1=O [Compound 145] | 31 | 31 | 8 | 58 | 18 | 41 | 100 | 60 | 70 | 40 | 60 | 60 | 60 | 70 | 40 | –
9 | C/C=C1\NC(=O)c2cccc(n2)CNC(=O)C[C@@H](/C=C/CCSC(C)=O)OC(=O)[C@H](Cc2ccccc2)NC1=O [Compound 13] | 53 | 11 | 84 | 85 | 42 | 81 | 20 | 300 | 50 | 90 | 70 | 100 | 20 | 80 | 100 | –
10 | C/C=C1\NC(=O)c2cccc(n2)CNC(=O)C[C@@H](/C=C/CCSC(=O)CCCCCCC)OC(=O)[C@H](c2ccc(O)cc2)NC1=O [Compound 238] | 82 | 66 | 52 | 55 | 56 | 46 | – | – | – | – | – | – | – | – | – | GI50 [2, 16]: 8 nM; GI50 [3, 17]: 23 nM; GI50 [3, 18]: 20 nM; GI50 [5, 19]: 10 nM; GI50 [5, 20]: 16 nM; GI50 [6, 21]: 50 nM; GI50 [6, 22]: 55 nM; GI50 [8, 23]: 77 nM; GI50 [8, 24]: 70 nM; GI50 [10, 25]: 140 nM; GI50 [10, 26]: 140 nM; GI50 [11, 27]: 10 nM; GI50 [11, 28]: 12 nM; GI50 [13, 29]: 15 nM; GI50 [13, 30]: 10 nM; GI50 [14, 31]: 110 nM; GI50 [14, 32]: 110 nM
11 | C/C=C1\NC(=O)c2ccc(F)c(n2)CNC(=O)C[C@@H](/C=C/CCSC(C)=O)OC(=O)[C@H](CCCCN)NC1=O [Example 74] | 29 | 350 | 37 | 24 | 49 | 24 | 20 | 350 | 40 | 30 | 40 | 30 | 30 | 20 | 20 | –

Source: patent US10065990B2, “Cyclic peptide compound, and preparation method, pharmaceutical composition and use thereof” (HANGZHOU GUANYU BIO-MEDICAL CO., LTD, priority 2013, dated 2018)
